# Assay results taken from ChEMBL document CHEMBL1201862, “PubChem BioAssay data set” (2004).
# Structures can show the parent of a compound that is named as a salt. Calls of active or inactive are those of the source.
# Key:
# Bcl-2-like protein 1 = Bcl-2-like protein 1 (Homo sapiens, UniProt Q07817); assay: blockers of BCLXL peptide binding – biochemical, fluorescence polarization, 1536-well, selectivity assay for MCL1 inhibitor project, dose response (AID 2218)
# [1] = target: Serine/threonine-protein kinase D3 (Homo sapiens, UniProt O94806); assay type: functional;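 also: determined within a kinase panel screen, with PRKCN as the panel member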
# Serine/threonine-protein kinase D3, sequence (O94806 whole entry): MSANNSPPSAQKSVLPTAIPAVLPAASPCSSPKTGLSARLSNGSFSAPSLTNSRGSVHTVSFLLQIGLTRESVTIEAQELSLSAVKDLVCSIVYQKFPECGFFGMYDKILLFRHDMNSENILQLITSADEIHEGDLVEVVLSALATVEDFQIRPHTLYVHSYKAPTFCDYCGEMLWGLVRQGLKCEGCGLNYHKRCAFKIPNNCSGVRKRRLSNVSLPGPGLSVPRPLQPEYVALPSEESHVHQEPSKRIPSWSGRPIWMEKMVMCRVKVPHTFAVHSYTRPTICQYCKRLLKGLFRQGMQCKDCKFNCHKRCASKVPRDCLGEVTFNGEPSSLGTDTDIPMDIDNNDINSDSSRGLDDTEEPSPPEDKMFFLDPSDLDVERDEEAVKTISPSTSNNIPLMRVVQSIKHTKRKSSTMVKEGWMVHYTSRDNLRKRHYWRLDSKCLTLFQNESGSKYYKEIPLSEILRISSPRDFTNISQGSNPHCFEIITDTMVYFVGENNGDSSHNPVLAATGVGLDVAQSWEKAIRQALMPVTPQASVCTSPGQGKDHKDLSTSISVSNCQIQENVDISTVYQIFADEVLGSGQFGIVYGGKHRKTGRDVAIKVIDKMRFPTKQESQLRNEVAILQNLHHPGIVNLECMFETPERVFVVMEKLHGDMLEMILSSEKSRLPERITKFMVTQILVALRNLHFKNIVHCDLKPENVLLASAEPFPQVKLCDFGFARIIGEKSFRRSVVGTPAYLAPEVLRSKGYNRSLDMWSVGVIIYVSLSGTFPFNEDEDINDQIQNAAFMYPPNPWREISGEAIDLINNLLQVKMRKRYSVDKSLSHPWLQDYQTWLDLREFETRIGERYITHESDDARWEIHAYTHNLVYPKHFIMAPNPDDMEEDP
# [2] = target: Protein kinase C gamma type (Homo sapiens, UniProt P05129); assay type: functional
# [3] = target: 5'-AMP-activated protein kinase catalytic subunit alpha-1 (Homo sapiens, UniProt Q13131); assay type: functional
# 5'-AMP-activated protein kinase catalytic subunit alpha-1, sequence (Q13131 whole entry): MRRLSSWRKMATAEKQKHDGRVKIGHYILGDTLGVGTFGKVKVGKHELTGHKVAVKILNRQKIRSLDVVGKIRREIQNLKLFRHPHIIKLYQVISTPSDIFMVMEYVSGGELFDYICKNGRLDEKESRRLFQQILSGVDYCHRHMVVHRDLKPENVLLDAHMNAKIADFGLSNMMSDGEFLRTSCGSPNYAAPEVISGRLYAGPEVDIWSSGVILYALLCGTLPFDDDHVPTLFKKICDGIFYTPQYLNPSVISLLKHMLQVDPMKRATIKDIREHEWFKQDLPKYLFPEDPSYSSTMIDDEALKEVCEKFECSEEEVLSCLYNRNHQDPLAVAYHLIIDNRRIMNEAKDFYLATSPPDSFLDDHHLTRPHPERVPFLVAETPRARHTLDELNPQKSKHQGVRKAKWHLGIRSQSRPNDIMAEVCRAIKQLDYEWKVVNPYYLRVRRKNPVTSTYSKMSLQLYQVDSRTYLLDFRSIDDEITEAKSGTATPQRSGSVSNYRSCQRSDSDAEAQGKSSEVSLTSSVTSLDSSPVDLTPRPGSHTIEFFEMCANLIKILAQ
# [4] = target: Serine/threonine-protein kinase D2 (Homo sapiens, UniProt Q9BZL6); assay type: functional;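 also: measured against PRKD2 as one member of a kinome-wide kinase profiling panel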
# Serine/threonine-protein kinase D2, sequence (Q9BZL6 whole entry): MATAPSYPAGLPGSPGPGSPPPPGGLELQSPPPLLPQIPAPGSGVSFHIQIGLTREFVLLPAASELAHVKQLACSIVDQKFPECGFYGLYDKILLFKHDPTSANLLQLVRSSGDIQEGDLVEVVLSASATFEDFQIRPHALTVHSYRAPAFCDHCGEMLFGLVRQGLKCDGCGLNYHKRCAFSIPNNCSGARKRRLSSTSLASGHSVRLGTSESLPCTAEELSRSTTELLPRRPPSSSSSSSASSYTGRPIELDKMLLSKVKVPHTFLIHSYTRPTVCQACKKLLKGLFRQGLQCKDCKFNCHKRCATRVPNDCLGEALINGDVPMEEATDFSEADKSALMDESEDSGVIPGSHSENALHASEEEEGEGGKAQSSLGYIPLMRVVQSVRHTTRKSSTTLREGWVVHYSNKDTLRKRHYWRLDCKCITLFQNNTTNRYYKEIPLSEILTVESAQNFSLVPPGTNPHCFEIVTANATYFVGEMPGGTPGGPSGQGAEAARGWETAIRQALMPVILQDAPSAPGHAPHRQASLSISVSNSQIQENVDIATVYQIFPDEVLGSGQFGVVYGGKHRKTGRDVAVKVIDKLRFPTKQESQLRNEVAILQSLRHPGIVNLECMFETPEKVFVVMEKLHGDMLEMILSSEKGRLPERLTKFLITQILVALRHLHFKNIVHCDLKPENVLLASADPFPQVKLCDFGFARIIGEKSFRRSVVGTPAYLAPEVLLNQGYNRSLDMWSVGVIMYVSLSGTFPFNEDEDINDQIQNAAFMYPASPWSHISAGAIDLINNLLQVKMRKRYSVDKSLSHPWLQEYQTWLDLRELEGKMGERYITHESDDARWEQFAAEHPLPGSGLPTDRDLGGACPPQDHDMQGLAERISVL
# [5] = target: Non-receptor tyrosine-protein kinase TYK2 (Homo sapiens, UniProt P29597); assay type: functional
# [6] = target: Serine/threonine-protein kinase pim-2 (Homo sapiens, UniProt Q9P1W9); assay type: functional;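 also: value comes from a broad kinase panel profiling study in which PIM2 was one of the panel members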
# Serine/threonine-protein kinase pim-2, sequence (Q9P1W9 whole entry): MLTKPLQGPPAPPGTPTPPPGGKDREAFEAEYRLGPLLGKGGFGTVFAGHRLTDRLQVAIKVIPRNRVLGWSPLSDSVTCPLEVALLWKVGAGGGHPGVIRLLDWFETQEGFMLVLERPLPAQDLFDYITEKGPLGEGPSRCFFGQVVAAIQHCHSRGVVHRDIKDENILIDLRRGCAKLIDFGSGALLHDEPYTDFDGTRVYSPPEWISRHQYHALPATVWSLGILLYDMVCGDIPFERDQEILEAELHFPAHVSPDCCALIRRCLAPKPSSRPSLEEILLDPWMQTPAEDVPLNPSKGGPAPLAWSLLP
# [7] = target: Tyrosine-protein kinase Fyn (Homo sapiens, UniProt P06241); assay type: functional
# Tyrosine-protein kinase Fyn, sequence (P06241 whole entry): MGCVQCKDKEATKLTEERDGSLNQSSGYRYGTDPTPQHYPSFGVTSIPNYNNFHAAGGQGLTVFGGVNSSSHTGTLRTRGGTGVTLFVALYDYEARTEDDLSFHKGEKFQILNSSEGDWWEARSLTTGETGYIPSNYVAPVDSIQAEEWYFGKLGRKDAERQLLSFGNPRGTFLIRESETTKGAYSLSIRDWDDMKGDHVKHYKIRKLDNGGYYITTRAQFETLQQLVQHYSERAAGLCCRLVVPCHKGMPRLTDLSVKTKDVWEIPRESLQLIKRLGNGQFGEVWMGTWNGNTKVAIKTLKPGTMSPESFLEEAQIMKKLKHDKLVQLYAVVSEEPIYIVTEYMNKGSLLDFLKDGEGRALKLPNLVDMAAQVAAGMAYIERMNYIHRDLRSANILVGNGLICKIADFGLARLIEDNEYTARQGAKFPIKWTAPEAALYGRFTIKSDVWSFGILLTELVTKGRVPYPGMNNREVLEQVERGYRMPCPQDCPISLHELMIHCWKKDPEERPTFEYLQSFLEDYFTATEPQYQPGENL
# [8] = target: T1, Sentrin-specific protease 7 (Homo sapiens, UniProt Q9BQF6); assay type: functional;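 also: Luminescence-based dose-response confirmation of ultra-high-throughput screening hits, measuring inhibition of SENP7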
# T1 sequence (Q9BQF6 whole entry): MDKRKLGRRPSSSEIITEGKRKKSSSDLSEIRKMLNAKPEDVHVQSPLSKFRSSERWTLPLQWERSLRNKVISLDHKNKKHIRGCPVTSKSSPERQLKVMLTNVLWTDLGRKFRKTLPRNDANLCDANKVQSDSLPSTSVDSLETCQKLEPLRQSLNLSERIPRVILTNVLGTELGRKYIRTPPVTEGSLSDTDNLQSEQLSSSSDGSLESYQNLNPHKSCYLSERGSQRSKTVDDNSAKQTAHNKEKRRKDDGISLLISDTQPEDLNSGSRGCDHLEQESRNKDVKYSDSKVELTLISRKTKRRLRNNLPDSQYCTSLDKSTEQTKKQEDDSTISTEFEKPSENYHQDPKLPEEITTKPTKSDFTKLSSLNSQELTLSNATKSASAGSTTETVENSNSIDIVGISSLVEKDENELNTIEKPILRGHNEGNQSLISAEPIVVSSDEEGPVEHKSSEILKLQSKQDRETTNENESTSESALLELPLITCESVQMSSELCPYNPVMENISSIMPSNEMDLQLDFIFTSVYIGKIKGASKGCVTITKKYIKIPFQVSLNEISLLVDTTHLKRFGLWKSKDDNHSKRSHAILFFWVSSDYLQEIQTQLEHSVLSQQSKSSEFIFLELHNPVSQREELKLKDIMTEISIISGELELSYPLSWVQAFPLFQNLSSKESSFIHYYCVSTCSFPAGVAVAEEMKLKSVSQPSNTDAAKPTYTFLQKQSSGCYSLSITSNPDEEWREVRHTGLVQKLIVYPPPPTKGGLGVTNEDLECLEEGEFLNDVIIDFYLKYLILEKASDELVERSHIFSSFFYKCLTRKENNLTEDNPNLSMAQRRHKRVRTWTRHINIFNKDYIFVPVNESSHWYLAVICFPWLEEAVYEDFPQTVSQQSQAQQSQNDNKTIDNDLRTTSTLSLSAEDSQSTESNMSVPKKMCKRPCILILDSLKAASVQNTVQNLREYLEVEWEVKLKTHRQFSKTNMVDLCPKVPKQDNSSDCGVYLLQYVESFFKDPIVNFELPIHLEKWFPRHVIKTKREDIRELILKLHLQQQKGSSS
# [9] = target: T2, Sentrin-specific protease 6 (Homo sapiens, UniProt Q9GZR1); assay type: functional;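 also: Luminescence-based dose-response confirmatory assay of SENP6 inhibition, following up an ultra-high-throughput screen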
# T2 sequence (Q9GZR1 whole entry): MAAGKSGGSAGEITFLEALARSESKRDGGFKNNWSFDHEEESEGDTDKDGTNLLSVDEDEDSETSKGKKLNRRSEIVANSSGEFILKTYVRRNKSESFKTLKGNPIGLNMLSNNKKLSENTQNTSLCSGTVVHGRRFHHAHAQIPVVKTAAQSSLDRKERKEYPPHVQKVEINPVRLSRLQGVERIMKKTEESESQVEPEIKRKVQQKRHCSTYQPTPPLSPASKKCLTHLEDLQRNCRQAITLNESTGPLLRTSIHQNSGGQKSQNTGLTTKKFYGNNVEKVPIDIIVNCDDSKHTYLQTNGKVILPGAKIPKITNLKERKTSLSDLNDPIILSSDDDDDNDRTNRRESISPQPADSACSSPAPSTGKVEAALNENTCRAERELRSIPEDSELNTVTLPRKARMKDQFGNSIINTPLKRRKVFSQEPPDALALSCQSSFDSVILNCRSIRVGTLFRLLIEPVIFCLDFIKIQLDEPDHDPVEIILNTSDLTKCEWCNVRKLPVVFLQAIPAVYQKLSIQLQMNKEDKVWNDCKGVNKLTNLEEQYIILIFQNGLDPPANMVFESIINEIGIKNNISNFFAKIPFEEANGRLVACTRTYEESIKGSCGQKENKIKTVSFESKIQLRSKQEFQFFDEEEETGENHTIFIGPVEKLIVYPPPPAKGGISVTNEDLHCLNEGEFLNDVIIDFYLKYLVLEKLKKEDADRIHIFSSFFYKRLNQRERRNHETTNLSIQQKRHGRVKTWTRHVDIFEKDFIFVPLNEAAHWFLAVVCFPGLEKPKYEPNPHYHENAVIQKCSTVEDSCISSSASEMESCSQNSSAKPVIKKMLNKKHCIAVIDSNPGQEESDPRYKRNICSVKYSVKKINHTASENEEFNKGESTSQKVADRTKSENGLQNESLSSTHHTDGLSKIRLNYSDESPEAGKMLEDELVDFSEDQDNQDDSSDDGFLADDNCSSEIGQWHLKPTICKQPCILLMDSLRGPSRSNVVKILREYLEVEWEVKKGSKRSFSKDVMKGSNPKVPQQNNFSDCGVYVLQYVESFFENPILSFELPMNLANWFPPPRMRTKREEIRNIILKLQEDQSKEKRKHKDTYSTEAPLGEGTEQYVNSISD
# Caspase-3 = target: T3, Caspase-3 (Homo sapiens, UniProt P42574); assay type: functional;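 also: Dose-response selectivity test against caspase-3 for candidate inhibitors of sentrin-specific proteases (SENPs)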
# T3 sequence (P42574 whole entry): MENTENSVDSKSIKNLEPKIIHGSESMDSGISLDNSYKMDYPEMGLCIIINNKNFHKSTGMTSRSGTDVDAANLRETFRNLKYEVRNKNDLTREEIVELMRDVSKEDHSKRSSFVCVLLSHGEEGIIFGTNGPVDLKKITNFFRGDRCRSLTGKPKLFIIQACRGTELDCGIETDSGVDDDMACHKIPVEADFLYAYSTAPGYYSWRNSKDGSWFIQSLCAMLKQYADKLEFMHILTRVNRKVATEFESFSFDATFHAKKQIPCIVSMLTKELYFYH
# [10] = target: Heat shock protein HSP 90-alpha (Homo sapiens, UniProt P07900); assay type: functional, organism-based
# Bcl-2-like protein 1, sequence (Q07817 whole entry): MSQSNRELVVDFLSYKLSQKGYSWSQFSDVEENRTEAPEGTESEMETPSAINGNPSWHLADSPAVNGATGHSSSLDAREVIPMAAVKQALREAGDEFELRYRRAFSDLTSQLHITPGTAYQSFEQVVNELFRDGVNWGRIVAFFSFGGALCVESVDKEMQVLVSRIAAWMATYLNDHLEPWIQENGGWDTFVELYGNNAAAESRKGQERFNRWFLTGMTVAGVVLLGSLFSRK
Structure (SMILES),IC50 [8],IC50 [9],IC50 (Caspase-3),AC50 [10],other results
CC[C@@H](CO)NC(=O)[C@@H]1C=C2c3cccc4c3c(cn4C)C[C@H]2N(C)C1 [METHYSERGIDE MALEATE],,,,,IC50 (Bcl-2-like protein 1): 22.6 µM (not active)
CN1CCN(c2nc(C3=C(c4c[nH]c5ccccc45)C(=O)NC3=O)c3ccccc3n2)CC1 [SOTRASTAURIN],,,,,Ki [1]: > 3.16 µM (inactive); Ki [2]: 0.0126 µM (active); Ki [3]: 0.631 µM (active); Ki [4]: > 10 µM (inactive); Ki [5]: > 2 µM (inactive); Ki [6]: 0.00158 µM (active); Ki [7]: > 3.16 µM (inactive)
CCC(C)n1c(NC(=O)c2ccccc2)c(C#N)c2nc3ccccc3nc21 (stereo unspecified),2.82 µM (active),0.984 µM (active),13.3 µM (active),,
CCN1/C(=C\c2ccc3ccccc3[n+]2CC)Sc2cc(C)ccc21,,,,7.75 µM (active),
O=C(CCl)Oc1ccc2occ(C(=O)c3cccs3)c2c1,10.7 µM (active),30.7 µM (active),21.4 µM (active),,
CCCCCCCCCCOC(=O)C[n+]1c(COc2ccc(C)cc2)n(C)c2ccccc21,,,,19.3 µM (active),
